Tested on: 636577-100-R-J1-PDC complex spheroid viability
Experiment: Anticancer human tumor 636577-100-R-J1-PDC patient-derived endometrial adenocarcinoma cell line growth inhibition [GQUAD]
Settings: for IC50: curve of first compound; for viability, T/C: stronger effect = lower value
How it was run: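 Viability of tumor cells grown as complex spheroids with endothelial and stromal cells, exposed to drug combinations. Top concentration at or near clinical Cmax (else 10 microM), diluted in half-log increments.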
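Note: viability read after seven days of drug exposure.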
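Throughout, for viability, T/C: luminescence signal used as a proxy for viable cells; 100% = DMSO vehicle control wells.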

IC50 (second compound 0.0316 µM): < 31.6 nM
IC50 (second compound 0.1 µM): < 31.6 nM
IC50 (second compound 0.316 µM): < 31.6 nM
IC50 (second compound 1 µM): < 31.6 nM
IC50 (second compound 3.16 µM): < 31.6 nM
IC50 (second compound 10 µM): < 31.6 nM
Structure (SMILES): C=CCn1c(=O)c2cnc(Nc3ccc(N4CCN(C)CC4)cc3)nc2n1-c1cccc(C(C)(C)O)n1 + Cc1cnc(CNC(=O)c2c(=O)c3ccc(N4CCCN(C)CC4)nc3n3c2sc2ccccc23)cn1
viability, T/C (second compound 0.0316 µM, first compound 0.0316 µM): 49.8%
viability, T/C (second compound 0.0316 µM, first compound 0.1 µM): 40.3%
viability, T/C (second compound 0.0316 µM, first compound 0.316 µM): 47.3%
viability, T/C (second compound 0.0316 µM, first compound 1 µM): 28.2%
viability, T/C (second compound 0.0316 µM, first compound 3.16 µM): 22.4%
viability, T/C (second compound 0.0316 µM, first compound 10 µM): 12.1%
viability, T/C (second compound 0.1 µM, first compound 0.0316 µM): 29.4%
viability, T/C (second compound 0.1 µM, first compound 0.1 µM): 29%
viability, T/C (second compound 0.1 µM, first compound 0.316 µM): 28.7%
viability, T/C (second compound 0.1 µM, first compound 1 µM): 22.3%
viability, T/C (second compound 0.1 µM, first compound 3.16 µM): 21.3%
viability, T/C (second compound 0.1 µM, first compound 10 µM): 14.2%
viability, T/C (second compound 0.316 µM, first compound 0.0316 µM): 27.4%
viability, T/C (second compound 0.316 µM, first compound 0.1 µM): 26.2%
viability, T/C (second compound 0.316 µM, first compound 0.316 µM): 28.2%
viability, T/C (second compound 0.316 µM, first compound 1 µM): 24.2%
viability, T/C (second compound 0.316 µM, first compound 3.16 µM): 24.8%
viability, T/C (second compound 0.316 µM, first compound 10 µM): 15.1%
viability, T/C (second compound 1 µM, first compound 0.0316 µM): 19.4%
viability, T/C (second compound 1 µM, first compound 0.1 µM): 19.5%
viability, T/C (second compound 1 µM, first compound 0.316 µM): 22.5%
viability, T/C (second compound 1 µM, first compound 1 µM): 24.5%
viability, T/C (second compound 1 µM, first compound 3.16 µM): 23.4%
viability, T/C (second compound 1 µM, first compound 10 µM): 14.3%
viability, T/C (second compound 3.16 µM, first compound 0.0316 µM): 18.1%
viability, T/C (second compound 3.16 µM, first compound 0.1 µM): 22.3%
viability, T/C (second compound 3.16 µM, first compound 0.316 µM): 25.9%
viability, T/C (second compound 3.16 µM, first compound 1 µM): 23.7%
viability, T/C (second compound 3.16 µM, first compound 3.16 µM): 21.1%
viability, T/C (second compound 3.16 µM, first compound 10 µM): 18.4%
viability, T/C (second compound 10 µM, first compound 0.0316 µM): 23%
viability, T/C (second compound 10 µM, first compound 0.1 µM): 22.2%
viability, T/C (second compound 10 µM, first compound 0.316 µM): 24.2%
viability, T/C (second compound 10 µM, first compound 1 µM): 19.1%
viability, T/C (second compound 10 µM, first compound 3.16 µM): 25.2%
viability, T/C (second compound 10 µM, first compound 10 µM): 23.1%

From PubChem BioAssay AID2060504 (Molecular Pharmacology Branch, DTP, NCI, 2025)
